# Test results published in patent US20230382863A1, “MEK INHIBITORS AND USES THEREOF” (Ikena Oncology, Inc., priority 2022, published 2023).
# Assays:
# pERK HCT-116 (G13D) = pERK HCT-116 (G13D) ICW (4 hour); assay type: cell-based; settings: Homo sapiens, read-out: pERK HCT-116 (G13D) ICW (4 hour): Average IC50 (nM)
# [1] = test system: SKM-1 xenograft (KRAS K117N); experiment: In vivo efficacy, SKM-1 xenograft model; design: species or system mouse; settings: SKM-1 model, Day 22
# Method: (§1) The antitumor activity of exemplary MEK inhibitor compounds is evaluated in vivo using human cell line derived xenografts (CDX) grown in immunodeficient mice. For these studies, AsPC1 (pancreatic cell line with KRAS G12D mutation), NCI-H2122 (lung cell line with KRAS G12C mutation), and 5637 (bladder cell line with CRAF amplification) models are used. In addition, HCT-116 (colorectal cell line with KRAS G13D mutation), SKM-1 (AML cell line with KRAS K117N mutation), and OCI-AML-3 (AML cell line with NRAS Q61L mutation) models are used. The tumor cell lines (AsPC-1, NCI-H2122, 5637, and HCT-116 cells) are maintained in vitro as monolayer culture in medium at 37° C. in an atmosphere of 5% CO2 in air. The tumor cell lines (SKM-1 and OCI-AML-3 cells) are maintained in vitro as a suspension in medium at 37° C. in an atmosphere of 5% CO2 in air. The tumor cells are routinely sub-cultured before confluence by trypsin-EDTA treatment, not to exceed 4-5 passages. The cells growing in an exponential growth phase are harvested for tumor inoculation. AsPC1, NCI-H2122, and OCI-AML-3 tumors are implanted into Balb/c nude mice. HCT-116 tumors are implanted into Nu/Nu mice. 5637 and SKM-1 tumors are implanted into NOG mice. Each mouse is inoculated subcutaneously on the right flank with tumor cells in a 1:1 mixture with matrigel. Tumors are allowed to grow to approximately 150-200 mm^3. At this time, mice are assigned to groups such that the mean tumor volume is the same for each treatment group. The MEK inhibitor compound treatments are administrated to the tumor-bearing mice via oral gavage. Throughout the study, mouse body weight and tumor volume are recorded. The measurement of tumor size is conducted twice weekly with a caliper and recorded. The tumor volume (mm^3) is estimated using the formula: TV=a×b^2/2, where “a” and “b” are long and short diameters of a tumor, respectively.
# BRAF in complex with MEK = experiment: BRAF-MEK stabilization in cells (MEK immunoprecipitation, Western); assay type: cell-based; settings: 3 nM, 4 hours
# From the text: (§2) The stabilization of ARAF, BRAF and CRAF in complex with MEK in MEK immunoprecipitates isolated from cellular lysates. For these studies, HCT-116 (colorectal cell line with KRAS G13D mutation), SKMEL-2 (melanoma cell line with NRAS Q61K mutation), HT-29 (colorectal cell line with BRAF Class I mutation), NCI-H1755 (lung cancer cell line with BRAF Class II mutation), and NCI-H1666 (lung cancer cell line with BRAF Class III mutation) models are used. The tumor cell lines are maintained in vitro as monolayer culture in medium at 37° C. in an atmosphere of 5% CO2 in air. Cell lines are treated with exemplary MEK inhibitors at a concentration of 3 nM for 4 hours. Cells are lysed and MEK is immunoprecipitated from the lysates overnight. Denatured immunoprecipitates are run on SDS-PAGE, transferred to nitrocellulose membranes and associated ARAF, BRAF, or CRAF are detected by Western analysis. Stabilization was defined as >1.5-fold induction of RAF-MEK interaction over vehicle control.
# [2] = test system: HCT-116 xenograft (KRAS G13D); experiment: In vivo efficacy, HCT-116 xenograft model; design: species or system mouse; settings: HCT-116 model, Day 20
# Method: as §1
# [3] = Cassette pharmacokinetics studies in mice; assay type: in vivo; settings: male, Balb/c, plasma, Mouse
# In short: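 Male Balb/c mice (3 per route) received cassette doses in 5% DMSO/95% PEG400 at 2 mg/kg IV (1 mg/kg where IV*) or 5 mg/kg PO. Plasma sampled to 24 h, acetonitrile-precipitated with internal standard, quantified by HPLC/MS/MS against 0.5-1,000 ng/mL standards.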
# [4] = test system: AsPC1 xenograft (KRAS G12D); experiment: In vivo efficacy, AsPC-1 xenograft model; design: species or system mouse; settings: AsPC-1 model, 3 mg/kg QD, Day 21
# Method: (§3) The antitumor activity of exemplary MEK inhibitor compounds is evaluated in vivo using human cell line derived xenografts (CDX) grown in immunodeficient mice. For these studies, AsPC1 (pancreatic cell line with KRAS G12D mutation), NCI-H2122 (lung cell line with KRAS G12C mutation), and 5637 (bladder cell line with CRAF amplification) models are used. In addition, HCT-116 (colorectal cell line with KRAS G13D mutation), SKM-1 (AML cell line with KRAS K117N mutation), and OCI-AML-3 (AML cell line with NRAS Q61L mutation) models are used. The tumor cell lines (AsPC-1, NCI-H2122, 5637, and HCT-116 cells) are maintained in vitro as monolayer culture in medium at 37° C. in an atmosphere of 5% CO2 in air. The tumor cell lines (SKM-1 and OCI-AML-3 cells) are maintained in vitro as a suspension in medium at 37° C. in an atmosphere of 5% CO2 in air. The tumor cells are routinely sub-cultured before confluence by trypsin-EDTA treatment, not to exceed 4-5 passages. The cells growing in an exponential growth phase are harvested for tumor inoculation. AsPC1, NCI-H2122, and OCI-AML-3 tumors are implanted into Balb/c nude mice. HCT-116 tumors are implanted into Nu/Nu mice. 5637 and SKM-1 tumors are implanted into NOG mice. […] Throughout the study, mouse body weight and tumor volume are recorded. The measurement of tumor size is conducted twice weekly with a caliper and recorded. […]
# [5] = test system: 5637 xenograft (CRAF amplification); experiment: In vivo efficacy, 5637 xenograft model; design: species or system mouse; settings: 5637 model, 3 mg/kg QD, Day 21
# Method: as §3
# ARAF in complex with MEK = experiment: ARAF-MEK stabilization in cells (MEK immunoprecipitation, Western); assay type: cell-based; settings: HCT-116 and NCI-H1755 cells, 3 nM, 4 hours; stabilization = >1.5-fold over vehicle
# From the text: as §2
# Pharmacokinetics in rat = assay type: in vivo; settings: plasma, IV, 1 mg/kg
compound,measurement,setting,value
"CNS(=O)(=O)Nc1cccc(Oc2c(C(=O)NC3CC3)c(Nc3ccc(I)cc3F)n(C)c(=O)c2C)c1Cl [Compound I-2, 4-(2-chloro-3-((N-methylsulfamoyl)amino)phenoxy)-N-cyclopropyl-2-((2-fluoro-4-iodophenyl)amino)-1,5-dimethyl-6-oxo-1,6-dihydropyridine-3-carboxamide]",IC50,pERK HCT-116 (G13D),< 100 nM
same,percent TGI,[1]; 1 mg/kg QD,97.7%
same,weight gain,[1]; 1 mg/kg QD,1.2%
same,average body weight loss,[1]; 3 mg/kg QD,1.2%
same,percent TGI,[1]; 6 mg/kg QOD,96.2%
same,weight gain,[1]; 6 mg/kg QOD,3.9%
same,Wild-type BRAF-MEK association,BRAF in complex with MEK; HCT-116 and SKMEL-2 cells,augmented
same,mutant BRAF-MEK interaction,"BRAF in complex with MEK; HT-29 (BRAF Class I), NCI-H1755 (BRAF Class II), NCI-H1666 (BRAF Class III)",enhanced
same,average body weight gain,[2]; 2 mg/kg QD,4%
same,percent TGI,[2]; 2 mg/kg QD,102.9%
same,average body weight gain,[2]; 3 mg/kg QOD,5.5%
same,percent TGI,[2]; 3 mg/kg QOD,98.1%
same,average body weight gain,[2]; 6 mg/kg QOD,12.1%
same,percent TGI,[2]; 6 mg/kg QOD,98%
same,AUC(0-inf),"[3]; IV, 2 mg/kg",1950 ng·h/mL
same,AUC(0-t),"[3]; IV, 2 mg/kg",1940 ng·h/mL
same,clearance,"[3]; IV, 2 mg/kg",17.2 mL/min/kg
same,half-life,"[3]; IV, 2 mg/kg",1.04 h
same,Vd,"[3]; IV, 2 mg/kg, read-out: Vdss",1.3 L/kg
same,AUC(0-inf),"[3]; PO, 5 mg/kg",4040 ng·h/mL
same,AUC(0-t),"[3]; PO, 5 mg/kg",3960 ng·h/mL
same,Cmax,"[3]; PO, 5 mg/kg",1660 ng/mL
same,Tmax,"[3]; PO, 5 mg/kg",0.5 h
same,half-life,"[3]; PO, 5 mg/kg",7.99 h
same,average body weight gain,[4],2.4%
same,percent TGI (tumor growth inhibition),[4],83.4%
same,average body weight loss,[5],6.8%
same,percent TGI,[5],111%
same,association of ARAF with MEK,ARAF in complex with MEK,enhanced
same,AUC(0-inf),Pharmacokinetics in rat,1080 ng·h/mL
same,AUC(0-t),Pharmacokinetics in rat,1070 ng·h/mL
same,clearance,Pharmacokinetics in rat,16.6 mL/min/kg
same,half-life,Pharmacokinetics in rat,4.22 h
same,Vd,Pharmacokinetics in rat; read-out: Vdss,2.2 L/kg
